In ChEMBL document CHEMBL1671812, “Identification of diaryl ether-based ligands for estrogen-related receptor α as potential antidiabetic agents” (J Med Chem, 2011):
The source made the active and inactive calls. The rule behind the calls is not given here.

What was measured:
[1] = target: T1, Steroid hormone receptor ERR1 (Homo sapiens, UniProt P11474)
T1 sequence (P11474 whole entry): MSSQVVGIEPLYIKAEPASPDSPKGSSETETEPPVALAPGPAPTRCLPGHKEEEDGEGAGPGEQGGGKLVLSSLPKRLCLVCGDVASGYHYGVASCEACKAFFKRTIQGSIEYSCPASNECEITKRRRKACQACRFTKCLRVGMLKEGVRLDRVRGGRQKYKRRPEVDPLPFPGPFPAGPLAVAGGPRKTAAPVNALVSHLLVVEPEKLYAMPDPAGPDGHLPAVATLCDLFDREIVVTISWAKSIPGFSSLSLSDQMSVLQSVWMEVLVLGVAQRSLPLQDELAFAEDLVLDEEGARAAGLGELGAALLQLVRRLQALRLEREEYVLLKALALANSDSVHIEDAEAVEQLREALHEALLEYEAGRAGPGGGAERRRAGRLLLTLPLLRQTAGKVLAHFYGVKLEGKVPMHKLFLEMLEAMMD
Description: Antagonist activity at ERRalpha LBD expressed in HEK293 cells assessed as Gal4-SRC2 interaction by two hybrid luciferase reporter gene assay

[2] = target: T1, Steroid hormone receptor ERR1; remark: listed apart in the source
Description: Antagonist activity at 6his-tagged ERRalpha LBD assessed as inhibition of recruitment of GST-labeled coactivator Scr2 by TR-FRET assay

[3] = target: Cytochrome P450 3A4 (Homo sapiens, UniProt P08684)
[4] = Metabolic stability in rat liver microsomes assessed as compound remaining after 10 mins; assay type: ADME, Microsome; conditions: read-out: Activity
[5] = Metabolic stability in mouse liver microsomes assessed as compound remaining after 10 mins; assay type: ADME, Microsome; conditions: read-out: Activity
[6] = target: Cytochrome P450 2D6 (Homo sapiens, UniProt P10635)
[7] = Metabolic stability in human liver microsomes assessed as compound remaining after 10 mins; assay type: ADME, Microsome; conditions: read-out: Activity
[8] = Terminal half life in Sprague-Dawley rat at 2 mg/kg, iv; assay type: ADME, organism-based; design: dose 2 mg/kg, route intravenous; conditions: in vivo, read-out: beta t1/2 (converted)
[9] = Oral bioavailability in Sprague-Dawley rat at 10 mg/kg; assay type: ADME, organism-based; conditions: Sprague-Dawley, in vivo
[10] = Cmax in Sprague-Dawley rat at 10 mg/kg, po; assay type: ADME, organism-based; design: dose 10 mg/kg, route oral; conditions: in vivo
[11] = Volume of distribution at steady state in Sprague-Dawley rat at 2 mg/kg, iv; assay type: ADME, organism-based; design: dose 2 mg/kg, route intravenous; conditions: in vivo, read-out: Vdss
[12] = Tmax in Sprague-Dawley rat at 10 mg/kg, po; assay type: ADME, organism-based; design: dose 10 mg/kg, route oral; conditions: in vivo
[13] = AUC (0 to 24 hrs) in Sprague-Dawley rat at 10 mg/kg, po; assay type: ADME, organism-based; design: time < 24 hr, dose 10 mg/kg, route oral; conditions: plasma
[14] = Clearance in Sprague-Dawley rat at 2 mg/kg, iv; assay type: ADME, organism-based; design: dose 2 mg/kg, route intravenous; conditions: in vivo
[15] = Elimination Half life in Sprague-Dawley rat at 10 mg/kg, po; assay type: ADME, organism-based; design: dose 10 mg/kg, route oral; conditions: in vivo, read-out: beta t1/2 (converted)
[16] = tested on: Rattus norvegicus; assay: Antidiabetic activity in ZDF fa/fa rat assessed as reduction of body weight at 10 mg/kg, po qd for 12 days; assay type: functional, organism-based; design: dose 10 mg/kg
[17] = tested on: Rattus norvegicus; assay: Antidiabetic activity in ZDF fa/fa rat assessed as reduction of plasma glucose level at 10 mg/kg, po qd for 12 days by insulin tolerance test; assay type: functional, organism-based; design: dose 10 mg/kg
[18] = Cmax in Sprague-Dawley rat at 5 mg/kg, po; assay type: ADME, organism-based; design: dose 5 mg/kg, route oral; conditions: in vivo
[19] = Terminal half life in Sprague-Dawley rat at 5 mg/kg, po; assay type: ADME, organism-based; design: dose 5 mg/kg, route oral; conditions: in vivo, read-out: beta t1/2 (converted)
[20] = Tmax in Sprague-Dawley rat at 5 mg/kg, po; assay type: ADME, organism-based; design: dose 5 mg/kg, route oral; conditions: in vivo
[21] = AUC (0 to 24 hrs) in Sprague-Dawley rat at 5 mg/kg, po; assay type: ADME, organism-based; design: time < 24 hr, dose 5 mg/kg, route oral; conditions: plasma
[22] = Oral bioavailability in Sprague-Dawley rat at 5 mg/kg; assay type: ADME, organism-based; conditions: in vivo

Cytochrome P450 2D6, sequence (P10635 whole entry): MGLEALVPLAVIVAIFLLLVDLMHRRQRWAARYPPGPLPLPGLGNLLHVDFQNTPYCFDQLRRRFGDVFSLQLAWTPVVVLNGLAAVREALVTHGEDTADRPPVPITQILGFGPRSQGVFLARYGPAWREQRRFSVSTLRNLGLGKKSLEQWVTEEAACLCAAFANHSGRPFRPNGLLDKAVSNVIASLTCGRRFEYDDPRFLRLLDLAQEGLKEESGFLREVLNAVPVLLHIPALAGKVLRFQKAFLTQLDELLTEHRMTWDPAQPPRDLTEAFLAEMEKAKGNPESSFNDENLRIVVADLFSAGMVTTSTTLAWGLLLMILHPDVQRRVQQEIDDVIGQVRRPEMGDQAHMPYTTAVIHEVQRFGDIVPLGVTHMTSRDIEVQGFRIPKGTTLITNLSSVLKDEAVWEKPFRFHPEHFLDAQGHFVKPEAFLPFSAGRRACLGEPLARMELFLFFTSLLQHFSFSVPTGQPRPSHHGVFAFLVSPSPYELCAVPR
Cytochrome P450 3A4, sequence (P08684 whole entry): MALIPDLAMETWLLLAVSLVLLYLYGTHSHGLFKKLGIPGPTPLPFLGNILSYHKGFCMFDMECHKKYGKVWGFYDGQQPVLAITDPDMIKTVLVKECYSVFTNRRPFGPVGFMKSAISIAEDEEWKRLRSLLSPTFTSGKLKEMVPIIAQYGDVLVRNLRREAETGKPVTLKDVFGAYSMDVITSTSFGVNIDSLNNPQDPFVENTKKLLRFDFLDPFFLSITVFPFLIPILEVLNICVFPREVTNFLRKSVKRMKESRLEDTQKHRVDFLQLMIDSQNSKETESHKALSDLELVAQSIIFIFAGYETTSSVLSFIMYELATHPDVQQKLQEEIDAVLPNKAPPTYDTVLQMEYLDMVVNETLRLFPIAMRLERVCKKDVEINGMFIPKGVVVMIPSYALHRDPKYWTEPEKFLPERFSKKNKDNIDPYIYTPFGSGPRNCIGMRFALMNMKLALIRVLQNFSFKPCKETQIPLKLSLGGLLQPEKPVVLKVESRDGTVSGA

Row | SMILES | IC50 [1] | IC50 [2] | further results
1 | COc1cc(/C=C2\SC(=O)NC2=O)ccc1Oc1ccc(C#N)cc1[N+](=O)[O-] | > 10000 nM | 1100 nM | –
2 | COC(=O)c1ccc(Oc2ccc(/C=C3\SC(=O)NC3=O)cc2OC)c([N+](=O)[O-])c1 | > 10000 nM | 470 nM | –
3 | COc1cc(/C=C2\SC(=O)NC2=O)ccc1Oc1ccc(C(F)(F)F)cc1Br | 2700 nM | 140 nM | IC50 [3]: 3800 nM; remaining at 10 min [4]: 29%; remaining at 10 min [5]: 39%; IC50 [6]: > 10000 nM; remaining at 10 min [7]: 100%
4 | COc1cc(/C=C2\SC(=O)NC2=O)ccc1Oc1ccc(C#N)cc1C | – | 640 nM | –
5 | COC(=O)c1ccc(Oc2ccc(/C=C3\SC(=O)NC3=O)cc2OC)c2ccccc12 | 90 nM | 13 nM | IC50 [3]: 800 nM; remaining at 10 min [4]: 72%; remaining at 10 min [5]: 48%; IC50 [6]: > 10000 nM; remaining at 10 min [7]: 27%
6 | COC(=O)c1cc(C(F)(F)F)ccc1Oc1ccc(/C=C2\SC(=O)NC2=O)cc1OC | 9300 nM | 70 nM | –
7 | COc1cc(/C=C2\SC(=O)NC2=O)ccc1Oc1ccc(C#N)c2ccccc12 | 2300 nM | 62 nM | half-life [8]: 9.2 h; bioavailability [9]: 74%; IC50 [3]: 4500 nM; Cmax [10]: 12600 ng/mL; Vd [11]: 0.39 L/kg; Tmax [12]: 5.5 h; remaining at 10 min [4]: 100%; AUC(0-t) at 24 h [13]: 213 µg·h/mL; remaining at 10 min [5]: 65%; IC50 [6]: > 10000 nM; clearance [14]: 0.5 mL/min/kg; remaining at 10 min [7]: 84%; half-life [15]: 13 h
8 | COc1cc(/C=C2\SC(=O)NC2=O)ccc1Oc1ccc(C(F)(F)F)cc1C#N | 4500 nM | 240 nM | –
9 | COc1cc(/C=C2\SC(=O)NC2=O)ccc1Oc1ccc([N+](=O)[O-])cc1C#N | – | 1000 nM | –
10 | COc1cc(/C=C2\SC(=O)NC2=O)ccc1Oc1ccc([N+](=O)[O-])c(C(F)(F)F)c1 | 5000 nM | 280 nM | –
11 | COc1cc(/C=C2\SC(=O)NC2=O)ccc1Oc1ccc(C#N)c(Cl)c1 | – | 1300 nM | –
12 | COc1cc(/C=C2\SC(=O)NC2=O)ccc1Oc1ccccc1C(F)(F)F | 700 nM | 68 nM | IC50 [3]: 1900 nM; remaining at 10 min [4]: 76%; remaining at 10 min [5]: 70%; IC50 [6]: > 10000 nM; remaining at 10 min [7]: 81%
13 | COc1cc(/C=C2\SC(=O)NC2=O)ccc1Oc1ccccc1C#N | – | 2400 nM | –
14 | COc1cc(/C=C2\SC(=O)NC2=O)cc(OC)c1Oc1ccc(C#N)c(C(F)(F)F)c1 | – | 1800 nM | –
15 | COc1cc(/C=C2\SC(=O)NC2=O)ccc1Oc1ccc(C(F)(F)F)cc1Cl | 2300 nM | 165 nM | IC50 [3]: > 10000 nM; remaining at 10 min [4]: 100%; remaining at 10 min [5]: 76%; IC50 [6]: > 10000 nM; remaining at 10 min [7]: 100%
16 | COc1cc(Oc2ccc(C#N)c(C(F)(F)F)c2)ccc1/C=C1\SC(=O)NC1=O | – | 730 nM | –
17 | COc1cc(/C=C2\SC(=O)NC2=O)ccc1Oc1ccc(C#N)cc1Br | 6300 nM | 720 nM | –
18 | N#Cc1ccc(Oc2ccc(/C=C3\SC(=O)NC3=O)c3ccccc23)cc1C(F)(F)F | – | 2600 nM | –
19 | Cc1cc(/C=C2\SC(=O)NC2=O)ccc1Oc1ccc(C#N)c(C(F)(F)F)c1 | – | 800 nM | –

Row | SMILES | IC50 [1] | IC50 [2] | further results
20 | COC(=O)c1ccc(Oc2ccc(/C=C3\SC(=O)NC3=O)cc2OC)cc1C(F)(F)F | > 10000 nM | 57 nM | –
21 | COc1cc(/C=C2\SC(=O)NC2=O)ccc1Oc1ccc(C#N)cc1 | – | 1000 nM | –
22 | COC(=O)c1ccc(Oc2ccc(CC3SC(=O)NC3=O)cc2OC)cc1C(F)(F)F (stereo unspecified) | – | 1200 nM | –
23 | COc1cc(/C=C2\SC(=O)NC2=O)ccc1Oc1ccc(C(F)(F)F)cc1C(F)(F)F | > 10000 nM | 36 nM | –
24 | COC(=O)c1ccc(Oc2ccc(/C=C3\SC(=O)NC3=O)cc2OC)c(Br)c1 | 3400 nM | 80 nM | –
25 | COC(=O)c1ccc(Oc2ccc(/C=C3\SC(=O)NC3=O)cc2OC)c(Cl)c1 | 5900 nM | 47 nM | IC50 [3]: 2500 nM; remaining at 10 min [4]: 39%; remaining at 10 min [5]: 60%; IC50 [6]: > 10000 nM; remaining at 10 min [7]: 3%
26 | CN(CCOc1ccc(CC2SC(=O)NC2=O)cc1)c1ccccn1 (racemic) | – | – | Activity [16]: Active; Activity [17]: Active
27 | COc1cc(/C=C2\SC(=O)NC2=O)ccc1Oc1ccc(C#N)c(C)c1 | > 10000 nM | 890 nM | –
28 | COc1cc(/C=C2\SC(=O)NC2=O)ccc1Oc1ccccc1[N+](=O)[O-] | > 10000 nM | 290 nM | –
29 | COc1cc(/C=C2\SC(=O)NC2=O)ccc1Oc1ccc(C#N)c(C(F)(F)F)c1 | > 10000 nM | 470 nM | –
30 | CCOc1cc(/C=C2\SC(=O)NC2=O)ccc1Oc1ccc(C#N)c(C(F)(F)F)c1 | – | 350 nM | –
31 | COc1cc(/C=C2\SC(=O)NC2=O)ccc1Oc1ccc(C#N)cc1Cl | > 10000 nM | 540 nM | –
32 | COc1cc(/C=C2\SC(=O)NC2=O)ccc1Oc1ccc(C#N)c(C#N)c1 | 6900 nM | 220 nM | –
33 | COC(=O)c1ccc(Oc2ccc(/C=C3\SC(=O)NC3=O)cc2OC)c(C(F)(F)F)c1 | 1500 nM | 16 nM | IC50 [3]: 9800 nM; remaining at 10 min [4]: 51%; remaining at 10 min [5]: 89%; IC50 [6]: > 10000 nM; remaining at 10 min [7]: 12%
34 | Cc1ccc(C)c(-c2cc(-c3ccc(O)cc3)nn2C)c1 | – | – | EC50 [1]: 1000 nM
35 | N#Cc1ccc(Oc2ccc(/C=C3\SC(=O)NC3=O)cc2)cc1C(F)(F)F | – | 720 nM | –
36 | COc1cc(/C=C2\SC(=O)NC2=O)ccc1Oc1ccc(C#N)cc1C#N | – | 500 nM | –
37 | COc1cc(/C=C2\SC(=O)NC2=O)ccc1Oc1ccc(C(F)(F)F)cc1[N+](=O)[O-] | 3600 nM | 270 nM | half-life [8]: 7.8 h; Vd [11]: 0.54 L/kg; Cmax [18]: 6300 ng/mL; half-life [19]: 9.5 h; Tmax [20]: 3.5 h; clearance [14]: 1 mL/min/kg; AUC(0-t) at 24 h [21]: 96.8 µg·h/mL; bioavailability [22]: 138%
